{"source": "paper PMC11945486", "about": "“TAS1R2/TAS1R3 Single-Nucleotide Polymorphisms Affect Sweet Taste Receptor Activation by Sweeteners: The SWEET Project” (Nutrients, 2025)", "target": "T1, human TAS1R2-I191V (subunit alone) (Homo sapiens, UniProt Q8TE23, I191V)", "T1 construct": "expressed in transfected cells; host or cells: HEK293T-Gα16gust44", "T1 sequence (Q8TE23 20-839 I191V)": "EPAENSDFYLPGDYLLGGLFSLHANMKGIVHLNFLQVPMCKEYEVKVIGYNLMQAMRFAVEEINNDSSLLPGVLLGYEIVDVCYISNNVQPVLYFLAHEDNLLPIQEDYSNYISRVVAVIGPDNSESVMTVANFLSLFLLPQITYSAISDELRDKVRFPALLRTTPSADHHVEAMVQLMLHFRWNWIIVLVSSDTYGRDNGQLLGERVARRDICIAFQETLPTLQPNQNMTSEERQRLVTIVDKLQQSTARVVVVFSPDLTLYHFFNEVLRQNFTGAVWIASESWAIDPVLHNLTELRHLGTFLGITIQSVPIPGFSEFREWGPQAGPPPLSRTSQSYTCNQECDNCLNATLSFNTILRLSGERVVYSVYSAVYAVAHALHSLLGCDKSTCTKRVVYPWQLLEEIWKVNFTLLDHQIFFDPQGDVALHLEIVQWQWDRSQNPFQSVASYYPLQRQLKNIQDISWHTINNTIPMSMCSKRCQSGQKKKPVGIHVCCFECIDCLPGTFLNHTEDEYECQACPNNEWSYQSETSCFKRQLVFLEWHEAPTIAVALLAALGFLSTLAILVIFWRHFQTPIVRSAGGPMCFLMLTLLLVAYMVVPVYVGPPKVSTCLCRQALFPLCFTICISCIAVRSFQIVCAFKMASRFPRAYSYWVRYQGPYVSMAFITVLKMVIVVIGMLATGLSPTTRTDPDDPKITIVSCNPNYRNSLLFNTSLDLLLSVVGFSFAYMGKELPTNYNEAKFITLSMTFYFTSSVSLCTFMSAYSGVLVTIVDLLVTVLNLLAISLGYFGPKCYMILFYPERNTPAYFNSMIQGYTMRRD", "assay": "Calcium mobilisation assay, TAS1R2-I191V subunit alone", "assay_type": "cell-based", "source_text": "The coding sequences for TAS1R2 and TAS1R3 were commercially synthesised, and the human codon was optimised for expression in human cells. The coding sequences of human TAS1R2 and TAS1R3 were subcloned and inserted into the mammalian expression vectors pcDNA6/myc-HisA and pcDNA4/myc-HisA (Invitrogen; Thermo Fisher Scientific; Illkirch, France) between the EcoRI and NotI restriction sites, generating the plasmids pcDNA6-TAS1R2 and pcDNA4-TAS1R3, respectively. To increase protein expression in mammalian cells, an upstream start codon was used, which was a sequence called MAX, corresponding to the QBI SP163 element also described in pcDNA4-HisMax (Invitrogen; Thermo Fisher Scientific; Illkirch, France). To measure the expression level of the receptor by immunohistochemistry, we used the FLAG sequence ([…]) in the C-terminal position, which encodes the FLAG tag epitope. […]\nThe HEK293T cells were kindly provided by Jay P. Slack (Givaudan Flavors Corporation; Cincinnati, OH, USA). […] The fluorescence intensity was measured for 90 s (excitation 488 nm, emission 510 nm) in an automated fluorometric FlexStation®3 Multi-Mode microplate reader (Molecular Devices; San Jose, CA, USA). […] The Ca^2+ changes were expressed as fractional changes in fluorescent light intensity: ΔF/F = (F − F0)/F0, where F was the fluorescent light intensity at each point, and F0 was the value of emitted fluorescent light prior to stimulus application. To calculate dose–response relationships, the changes in fluorescence upon stimulus application were averaged, mock-subtracted and baseline-corrected. […] The half-maximal effective concentrations (EC50 values) and maximal signal amplitudes were calculated using SigmaPlot software (version 15.0) (Systat Software; San Jose, CA, USA).\nFor in vitro calcium mobilisation assay performed on hTAS1R2-SNPs, hTAS1R3-SNPs and mTAS1R3-I60T, 6 to 7 concentrations were tested for each sweet compound, plus buffer alone. All concentration–receptor combinations were measured in duplicate, and each experiment was repeated at least 4 times (8 wells/concentration). […]"}
{"compound": "C=C(C)[C@@H]1CC=C(/C=N/O)CC1", "note": "[Perillartine, perillartine]", "values": [{"measurement": "EC50", "result": "390 ± 47", "unit": "µM"}, {"measurement": "R1 = Variant EC50/WT EC50", "result": 4.3}, {"measurement": "Max ΔF/F0", "setting": "maximal signal amplitude", "result": "0.19 ± 0.01"}]}
